Measurements from article PMC5694482 (Frontiers in Pharmacology, 2017).
Values joined by “and” are separate entries in the source; they are usually repeats but may differ in a detail not shown here. Identical values can stand only once. “Also recorded” adds a separate entry of the source. Like-named read-outs stand apart in the source and are kept apart here.

Experiments:
[1] = target: T1, H3R (Homo sapiens, UniProt Q9Y5N1); details: for Ki: H3R pKi ± SEM; for SI H4R/H3R (Ki): selectivity index, ratio of Ki H4R/H3R
T1 sequence (Q9Y5N1 whole entry, species assumed): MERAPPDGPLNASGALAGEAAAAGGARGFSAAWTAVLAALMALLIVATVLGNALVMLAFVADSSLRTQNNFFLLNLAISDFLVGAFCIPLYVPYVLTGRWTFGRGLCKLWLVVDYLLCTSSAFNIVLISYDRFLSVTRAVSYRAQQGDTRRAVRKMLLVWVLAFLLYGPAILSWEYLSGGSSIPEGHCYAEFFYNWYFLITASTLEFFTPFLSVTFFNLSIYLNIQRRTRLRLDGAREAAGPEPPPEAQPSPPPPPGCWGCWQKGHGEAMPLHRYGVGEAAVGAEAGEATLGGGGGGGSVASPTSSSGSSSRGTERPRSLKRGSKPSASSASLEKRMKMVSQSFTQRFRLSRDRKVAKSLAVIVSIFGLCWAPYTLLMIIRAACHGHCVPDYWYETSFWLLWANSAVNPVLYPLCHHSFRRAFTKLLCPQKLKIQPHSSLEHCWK

[2] = target: T2, H4R (Homo sapiens, UniProt Q9H3N8); experiment: Competition binding assay with [3H]-histamine in HEK293T cells transiently expressing H4R; details: for binding to H4R in initial screening (in words): screening format, Supplementary Figure S2
T2 construct: expressed in transfected cells; host or cells: HEK293T
T2 sequence (Q9H3N8 whole entry, species assumed): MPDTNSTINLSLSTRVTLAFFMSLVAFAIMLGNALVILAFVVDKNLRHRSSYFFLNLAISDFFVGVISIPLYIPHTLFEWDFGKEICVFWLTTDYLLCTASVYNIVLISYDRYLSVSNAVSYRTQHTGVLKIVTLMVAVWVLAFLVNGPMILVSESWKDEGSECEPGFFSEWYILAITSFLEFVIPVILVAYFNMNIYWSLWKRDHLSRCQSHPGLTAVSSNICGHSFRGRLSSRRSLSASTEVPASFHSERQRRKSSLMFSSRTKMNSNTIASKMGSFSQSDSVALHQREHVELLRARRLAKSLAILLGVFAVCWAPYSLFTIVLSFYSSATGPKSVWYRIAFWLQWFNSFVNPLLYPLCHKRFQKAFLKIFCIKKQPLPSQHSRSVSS

[3] = system: mouse asthma model; experiment: OVA-induced allergic asthma in mice, cell counts in bronchoalveolar lavage; format: in vivo, Male C57Bl/6 mice; details: 3 and 5 mg/kg intraperitoneally 30 min before antigen challenge
Protocol: Male C57Bl/6 mice weighing 20–25 g, 6–8 weeks old, from our own animal facilities were housed in a room with a 12 h light–dark cycle with water and food ad libitum. Animal care and research protocols were in accordance with the principles and guidelines adopted by the Brazilian College of Animal Experimentation (COBEA) and this project was approved by the Ethical Committee for Animal Research of the Federal University of São Paulo (CEUA 1666/99).
Mice (n = 5 per group) were sensitized on days 0 and 7 by an intraperitoneal injection of a mixture containing […] of ovalbumin (OVA; Grade V, Sigma–Aldrich, United States) and 1 mg of Al(OH)3 in PBS (a total volume of 0.2 ml). Mice were challenged by exposure to an aerosol of OVA generated by an ultrasonic nebulizer (ICEL US-800, SP, Brazil) delivering particles of […] diameter at approximately 0.75 cc/min for 20 min at days 14 and 21. The concentration of OVA in the nebulizer was 2.5% w/v in PBS. The control group consisted of animals immunized as previously described and challenged two times with PBS solution. Compounds 1d and 1e were administered intraperitoneally in two different dosages (5 and 3 mg/kg) to the test groups 30 min before the antigen challenge. Sensitized and control groups were used to assess the anti-inflammatory activity ([Corrêa et al., 2017]).
Mice were euthanized with intraperitoneal ketamine and xylazine (100 and 10 mg/kg, respectively; Agibrands do Brazil, São Paulo, São Paulo, Brazil), 24 h after exposure to the last aerosol challenge. A tracheal cannula was inserted via a mid cervical incision, and the airways were washed twice with 1 ml of phosphate-buffered saline (PBS, pH 7.4 at 4°C).
The bronchoalveolar lavage fluid was centrifuged at 170 × g for 10 min at 4°C, the supernatant was removed, and the cell pellet was re-suspended in 1 ml of PBS. One volume of a solution containing 0.5% crystal violet dissolved in 30% acetic acid was added to nine volumes of the cell suspension. The total number of cells was determined by counting in a hematocytometer. […]

[4] = system: mouse asthma model; details: cited from earlier work
[5] = target: T2, H4R; experiment: G protein (Gi1) activation BRET assay, H4R, agonist and antagonist mode; format: cell-based; details: for Gi activation at H4R (agonist mode): BRET Gi1 biosensor, up to 10,000 nM; for block of histamine activity at H4R (antagonist mode): preincubation 30 min at 10,000 nM before histamine
[6] = target: T1, H3R; experiment: G protein (Gi1) activation BRET assay, H3R, agonist and antagonist mode; format: cell-based; set-up: expressed in transfected cells; host or cells: HEK293T; details: BRET Gi1 biosensor, up to 10,000 nM
[7] = displacement of 1.15 nM [3H]-histamine, HEK293T cells, Cheng-Prusoff
[8] = displacement of 1.15 nM [3H]-histamine, HEK293T cells, Cheng-Prusoff, read-out: H4R pKi ± SEM (converted)

Structure (SMILES)	Ki [1, 7]	Ki [2, 8] [µM]	SI H4R/H3R (Ki) [1]	other results
c1ccc2c(c1)CC(CN1CCNCC1)O2 (centres unmarked) [1a, 1-[(2,3-Dihydro-1-benzofuran-2-yl)methyl]piperazine]	> 10 µM	> 10		affinity for H3R (in words) [1]: did not show appreciable affinity
CN1CCN(CC2Cc3ccccc3O2)CC1 (centres unmarked) [1b, 1-[(2,3-dihydro-1-benzofuran-2-yl)methyl]-4-methylpiperazine]	2.69 µM	> 10		
C=CCN1CCN(CC2Cc3ccccc3O2)CC1 (centres unmarked) [1c, 1-allyl-4-[(2,3-dihydro-1-benzofuran-2-yl)methyl]piperazine]		> 10	>25	H3R pKi ± SEM [1, 7]: 6.40 ± 0.21
c1ccc(N2CCN(CC3Cc4ccccc4O3)CC2)cc1 (centres unmarked) [1d, 1-[(2,3-dihydro-1-benzofuran-2-yl)methyl]-4-phenyl-piperazine]	> 10 µM	> 10		affinity for H3R (in words) [1]: did not show appreciable affinity; effect on total inflammatory cell and eosinophil counts in bronchoalveolar lavage [3]: dose-dependent effect; anti-inflammatory activity in mouse asthma model ([4]; earlier report, ref Corrêa et al., 2017): anti-inflammatory activity only at 5 mg/kg dose
CN1CCN(CC2Cc3cc(Cl)ccc3O2)CC1 (centres unmarked) [1e, 1-[(5-chloro-2,3-dihydro-1-benzofuran-2-yl)methyl]-4-methylpiperazine]	~0.851 µM and 0.851 µM	0.871	1.1	effect on total inflammatory cell and eosinophil counts in bronchoalveolar lavage [3]: low counts in both doses; also recorded: highly effective at low doses; effect on total inflammatory cell and eosinophil counts in bronchoalveolar lavage ([3]; listed as LINS01007): better anti-inflammatory activity; Gi activation at H4R (agonist mode) [5]: did not trigger Gi activation; block of histamine activity at H4R (antagonist mode) [5]: fully blocked histamine agonistic effect; increase in affinity for H4R by insertion of the chlorine atom ([2]; 1e against the non-substituted molecule): more than 10 fold; binding to H4R in initial screening (in words) [2]: considerable binding to H4R
Cc1ccc2c(c1)CC(CN1CCN(C)CC1)O2 (centres unmarked) [1f, 1-methyl-4-[(5-methyl-2,3-dihydro-1-benzofuran-2-yl)methyl]piperazine]	0.708 µM		14	Gi activation at H4R (agonist mode) [5]: weak agonistic effect in high concentrations; also recorded: moderate agonistic effect; block of histamine activity at H4R (antagonist mode) [5]: only partially blocked histamine activity; also recorded: only partially reduced histamine effect; Ki ([2]; read-out: H4R Ki / binding affinity): ~10 µM; binding to H4R in initial screening (in words) [2]: considerable binding to H4R
COc1ccc2c(c1)CC(CN1CCN(C)CC1)O2 (centres unmarked) [1g, 1-methyl-4-[(5-methoxy-2,3-dihydro-1-benzofuran-2-yl)methyl]piperazine]	0.871 µM	> 10	>11	
CN1CCN(CC2Cc3cc(C(C)(C)C)ccc3O2)CC1 (centres unmarked) [1h, 1-methyl-4-[(5-tert-butyl-2,3-dihydro-1-benzofuran-2-yl)methyl]piperazine]	~0.851 µM and 0.851 µM	> 10	> 11	
Clc1ccc2c(c1)CC(CN1CCN(c3ccccc3)CC1)O2 (centres unmarked) [1i, 1-[(5-chloro-2,3-dihydro-1-benzofuran-2-yl)methyl]-4-phenylpiperazine]	> 10 µM	> 10		affinity for H3R (in words) [1]: did not show appreciable affinity
NC(=NCc1ccc(Cl)cc1)SCCCc1cnc[nH]1 [Clobenpropit]				Gi activation at H3R (agonist mode) [6]: unable to trigger Gi activation
NCCc1c[nH]cn1 [Histamine, reference compound]				Gi activation at H4R (agonist mode) [5]: poor stimulant of Gi; Gi activation at H3R (agonist mode) [6]: strong activation signal
CN1CCN(C(=O)c2cc3cc(Cl)ccc3[nH]2)CC1 [JNJ-7777120, reference compound]				effect on inflammatory infiltrations in experimental murine asthma model ([4]; ref Neumann et al., 2013): capable of reducing the inflammatory infiltrations
